In patent US9273058B2 (BRISTOL-MYERS SQUIBB COMPANY, priority 2013, dated 2016):

Experiments:
CK1ε = CK1ε (Homo sapiens, UniProt P49674); experiment: CK1ε kinase assay (Caliper LabChip electrophoretic separation of fluoresceinated peptide substrate and product); assay type: biochemical; settings: 200 pM CK1ε, 50 μM ATP, 1.5 μM peptide, 22 hours at room temperature; read-out: CK1ε IC50 range
In short: (§1)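 Reactions ran 22 hours at room temperature and were stopped with EDTA. Phosphorylated product and unphosphorylated substrate were then separated electrophoretically. Compounds were tested at eleven concentrations, and IC50 values came from non-linear regression.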

CK1δ = CK1δ (Homo sapiens, UniProt P48730); experiment: CK1δ kinase assay (Caliper LabChip electrophoretic separation of fluoresceinated peptide substrate and product); assay type: biochemical; settings: 200 pM CK1δ, 50 μM ATP, 1.5 μM peptide, 22 hours at room temperature; read-out: CK1δ IC50 range
Chain of CK1δ (P48730 whole entry): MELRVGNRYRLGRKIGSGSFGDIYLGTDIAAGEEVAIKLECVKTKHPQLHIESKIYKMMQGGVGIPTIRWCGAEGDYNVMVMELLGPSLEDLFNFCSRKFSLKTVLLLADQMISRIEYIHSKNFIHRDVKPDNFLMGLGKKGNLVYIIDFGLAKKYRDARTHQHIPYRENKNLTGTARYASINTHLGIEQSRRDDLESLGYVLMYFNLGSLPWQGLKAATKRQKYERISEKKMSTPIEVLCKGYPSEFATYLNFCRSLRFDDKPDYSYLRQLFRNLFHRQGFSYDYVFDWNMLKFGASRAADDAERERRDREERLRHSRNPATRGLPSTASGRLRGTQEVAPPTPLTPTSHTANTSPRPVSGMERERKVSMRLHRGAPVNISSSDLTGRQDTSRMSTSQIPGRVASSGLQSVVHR
In short: as §1

Chain of CK1ε (P49674 whole entry): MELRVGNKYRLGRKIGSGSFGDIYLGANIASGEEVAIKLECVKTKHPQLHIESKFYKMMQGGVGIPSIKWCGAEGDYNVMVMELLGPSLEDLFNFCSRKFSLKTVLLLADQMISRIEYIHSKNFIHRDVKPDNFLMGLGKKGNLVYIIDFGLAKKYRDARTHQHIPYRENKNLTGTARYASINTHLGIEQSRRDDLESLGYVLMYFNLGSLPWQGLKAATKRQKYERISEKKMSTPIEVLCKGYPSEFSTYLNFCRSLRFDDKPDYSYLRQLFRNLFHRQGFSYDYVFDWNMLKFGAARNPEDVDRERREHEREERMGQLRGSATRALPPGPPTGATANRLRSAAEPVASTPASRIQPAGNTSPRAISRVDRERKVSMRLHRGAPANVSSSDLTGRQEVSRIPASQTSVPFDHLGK

`CO[C@H]1C[C@H](NC(=O)N2CCn3nc(-c4ccc(Cl)c(Cl)c4)c(C(N)=O)c3C2)C1` [Compound 204, 2-(3,4-Dichlorophenyl)-N^5-((1r,3r)-3-methoxycyclobutyl)-6,7-dihydropyrazolo[1,5-a] pyrazine-3,5(4H)-dicarboxamide] showed an IC50 (CK1ε) of 0.01 to 10 nM and an IC50 (CK1δ) of 0.01 to 10 nM.
`CC1Cn2nc(-c3ccc(F)c(Cl)c3)c(C(N)=O)c2CN1C(=O)NC1(C)CC(F)(F)C1` (single isomer, unassigned) [Compound 344, 2-(3-Chloro-4-fluorophenyl)-N^5-(3,3-difluoro-1-methylcyclobutyl)-6-methyl-6,7-dihydropyrazolo[1,5-a]pyrazine-3,5(4H)-dicarboxamide] gave an IC50 (CK1ε) of 0.01 to 10 nM and an IC50 (CK1δ) of 0.01 to 10 nM.
For `CS[C@H]1C[C@@H](NC(=O)N2CCn3nc(-c4cccc(Cl)c4)c(C(N)=O)c3C2)C1` [Compound 270, 2-(3-Chlorophenyl)-N^5-((1s,3s)-3-(methylthio)cyclobutyl)-6,7-dihydropyrazolo[1,5-a] pyrazine-3,5(4H)-dicarboxamide], the IC50 (CK1ε) was 0.01 to 10 nM and the IC50 (CK1δ) was 0.01 to 10 nM.
`NC(=O)c1c(-c2cccc(Cl)c2)nn2c1CN(C(=O)NC1CC(F)(F)C1)CC2` [Compound 292, 2-(3-Chlorophenyl)-N^5-(3,3-difluorocyclobutyl)-6,7-dihydropyrazolo[1,5-a]pyrazine-3,5(4H)-dicarboxamide] showed an IC50 (CK1ε) of 10 to 100 nM and an IC50 (CK1δ) of 10 to 100 nM.
Work on `CC(C)(COC(F)(F)F)NC(=O)N1CCn2nc(-c3ccc(F)c(Cl)c3)c(C(N)=O)c2C1` [Compound 212, 2-(3-Chloro-4-fluorophenyl)-N^5-(2-methyl-1-(trifluoromethoxy)propan-2-yl)-6,7-dihydropyrazolo[1,5-a]pyrazine-3,5(4H)-dicarboxamide] yielded an IC50 (CK1ε) of 0.01 to 10 nM and an IC50 (CK1δ) of 0.01 to 10 nM.
For `CC(F)(F)C(C)(C)NC(=O)N1CCn2nc(-c3ccc(F)c(Cl)c3)c(C(N)=O)c2C1` [Compound 188, 2-(3-Chloro-4-fluorophenyl)-N^5-(3,3-difluoro-2-methylbutan-2-yl)-6,7-dihydropyrazolo[1,5-a] pyrazine-3,5(4H)-dicarboxamide], the IC50 (CK1ε) was 0.01 to 10 nM and the IC50 (CK1δ) was 0.01 to 10 nM.
`CC1Cn2nc(-c3ccc(F)c(Cl)c3)c(C(N)=O)c2CN1C(=O)NC1(C)CC(F)(F)C1` (single isomer, unassigned) [Compound 345, 2-(3-Chloro-4-fluorophenyl)-N^5-(3,3-difluoro-1-methylcyclobutyl)-6-methyl-6,7-dihydropyrazolo[1,5-a]pyrazine-3,5(4H)-dicarboxamide] gave an IC50 (CK1ε) of 0.01 to 10 nM and an IC50 (CK1δ) of 0.01 to 10 nM.
With `NC(=O)c1c(-c2cccc(F)c2)nn2c1CN(C(=O)NC1(C(F)(F)F)CC1)CC2` [Compound 20, 2-(3-Fluorophenyl)-N^5-(1-(trifluoromethyl)cyclopropyl)-6,7-dihydropyrazolo[1,5-a]pyrazine-3,5(4H)-dicarboxamide] the IC50 (CK1ε) was 10 to 100 nM and the IC50 (CK1δ) was 10 to 100 nM.
`C[C@]1(NC(=O)N2CCn3nc(-c4ccc(F)c(Cl)c4)c(C(N)=O)c3C2)C[C@H](F)C1` [Compound 275, 2-(3-Chloro-4-fluorophenyl)-N^5-((1r,3r)-3-fluoro-1-methylcyclobutyl)-6,7-dihydropyrazolo[1,5-a]pyrazine-3,5(4H)-dicarboxamide] was tested, and the IC50 (CK1ε) was 0.01 to 10 nM and the IC50 (CK1δ) was 0.01 to 10 nM.
`N#Cc1ccc([C@H]2C[C@@H](NC(=O)N3CCn4nc(-c5ccc(Cl)c(Cl)c5)c(C(N)=O)c4C3)C2)cc1` [Compound 283, N^5-((1s,3s)-3-(4-Cyanophenyl)cyclobutyl)-2-(3,4-dichlorophenyl)-6,7-dihydropyrazolo[1,5-a]pyrazine-3,5(4H)-dicarboxamide] showed an IC50 (CK1ε) of 0.01 to 10 nM and an IC50 (CK1δ) of 0.01 to 10 nM.
`CC(C)(C)NC(=O)N1CCn2nc(-c3ccnc(F)c3)c(C(N)=O)c2C1` [Compound 112, N^5-(tert-Butyl)-2-(2-fluoropyridin-4-yl)-6,7-dihydropyrazolo[1,5-a] pyrazine-3,5(4H)-dicarboxamide] showed an IC50 (CK1ε) of 100 to 2000 nM and an IC50 (CK1δ) of 10 to 100 nM.
